Source: PMC10885153, “Membrane Permeability in a Large Macrocyclic Peptide Driven by a Saddle-Shaped Conformation” (Journal of the American Chemical Society, 2024)
Positions of bridges follow the written chain, without caps; N, C: chain ends. Non-standard residues stand in square brackets, D forms with d. Residues, ends and D or L forms follow the SMILES beside them. NMeC = CN[C@@H](CS)C(=O)O; NMeA = CN[C@@H](C)C(=O)O; dAbu = CC[C@@H](N)C(=O)O; dNMeA = CN[C@H](C)C(=O)O; Abu = CC[C@H](N)C(=O)O; Nleu = CC(C)CNCC(=O)O; NEtG = CCNCC(=O)O

Experiment: in vitro
Details: PAMPA, pH 7.4, PAMPA Pe_avg

Papp at 10 µM | SMILES
0.688 ×10⁻⁶ cm/s | CCOC(=O)[C@@H]1CSCC(=O)N[C@H](CC)C(=O)N(C)[C@@H](C)C(=O)N[C@@H](CC(C)C)C(=O)N2CCC[C@@H]2C(=O)N(CC(C)C)CC(=O)N[C@@H](CC(C)C)C(=O)N(C)[C@@H](C)C(=O)N[C@@H](CC(C)C)C(=O)N1C [JF206_ADD_DLLL_Isobutyl] ({CH2CO}-[dAbu][NMeA]L[dP][Nleu]L[NMeA]L[NMeC]-OEt; thioether N-9)
0.286 ×10⁻⁶ cm/s | CCOC(=O)[C@@H]1CSCC(=O)N[C@@H](CC)C(=O)N(C)[C@@H](C)C(=O)N[C@@H](CC(C)C)C(=O)N2CCC[C@@H]2C(=O)N(CC(C)C)CC(=O)N[C@H](CC(C)C)C(=O)N(C)[C@H](C)C(=O)N[C@@H](CC(C)C)C(=O)N1C [JF206_ADL_LLDD_Isobutyl] ({CH2CO}-[Abu][NMeA]L[dP][Nleu][dL][dNMeA]L[NMeC]-OEt; thioether N-9)
0.623 ×10⁻⁶ cm/s | CCOC(=O)[C@@H]1CSCC(=O)N[C@@H](CC)C(=O)N(C)[C@@H](C)C(=O)N[C@H](CC(C)C)C(=O)N2CCC[C@H]2C(=O)N(CC)CC(=O)N[C@H](CC(C)C)C(=O)N(C)[C@H](C)C(=O)N[C@@H](CC(C)C)C(=O)N1C [JF206_ALL_LDDD_Ethyl] ({CH2CO}-[Abu][NMeA][dL]P[NEtG][dL][dNMeA]L[NMeC]-OEt; thioether N-9)
0.038 ×10⁻⁶ cm/s | CCOC(=O)[C@@H]1CSCC(=O)N[C@H](CC)C(=O)N(C)[C@@H](C)C(=O)N[C@@H](CC(C)C)C(=O)N2CCC[C@H]2C(=O)N(CC(C)C)CC(=O)N[C@H](CC(C)C)C(=O)N(C)[C@H](C)C(=O)N[C@@H](CC(C)C)C(=O)N1C [JF206_ALD_DLDD_Isobutyl] ({CH2CO}-[dAbu][NMeA]LP[Nleu][dL][dNMeA]L[NMeC]-OEt; thioether N-9)
0.229 ×10⁻⁶ cm/s | CCOC(=O)[C@@H]1CSCC(=O)N[C@@H](CC)C(=O)N(C)[C@@H](C)C(=O)N[C@@H](CC(C)C)C(=O)N2CCC[C@@H]2C(=O)N(CC(C)C)CC(=O)N[C@H](CC(C)C)C(=O)N(C)[C@@H](C)C(=O)N[C@@H](CC(C)C)C(=O)N1C [JF206_ADL_LLDL_Isobutyl] ({CH2CO}-[Abu][NMeA]L[dP][Nleu][dL][NMeA]L[NMeC]-OEt; thioether N-9)
0.016 ×10⁻⁶ cm/s | CCOC(=O)[C@@H]1CSCC(=O)N[C@H](CC)C(=O)N(C)[C@@H](C)C(=O)N[C@@H](CC(C)C)C(=O)N2CCC[C@H]2C(=O)N(CC)CC(=O)N[C@@H](CC(C)C)C(=O)N(C)[C@H](C)C(=O)N[C@@H](CC(C)C)C(=O)N1C [JF206_ALD_DLLD_Ethyl] ({CH2CO}-[dAbu][NMeA]LP[NEtG]L[dNMeA]L[NMeC]-OEt; thioether N-9)
0.173 ×10⁻⁶ cm/s | CCOC(=O)[C@@H]1CSCC(=O)N[C@H](CC)C(=O)N(C)[C@@H](C)C(=O)N[C@@H](CC(C)C)C(=O)N2CCC[C@@H]2C(=O)N(CC(C)C)CC(=O)N[C@H](CC(C)C)C(=O)N(C)[C@@H](C)C(=O)N[C@@H](CC(C)C)C(=O)N1C [JF206_ADD_DLDL_Isobutyl] ({CH2CO}-[dAbu][NMeA]L[dP][Nleu][dL][NMeA]L[NMeC]-OEt; thioether N-9)
0.063 ×10⁻⁶ cm/s | CCOC(=O)[C@@H]1CSCC(=O)N[C@H](CC)C(=O)N(C)[C@@H](C)C(=O)N[C@H](CC(C)C)C(=O)N2CCC[C@H]2C(=O)N(CC(C)C)CC(=O)N[C@@H](CC(C)C)C(=O)N(C)[C@H](C)C(=O)N[C@@H](CC(C)C)C(=O)N1C [JF206_ALD_DDLD_Isobutyl] ({CH2CO}-[dAbu][NMeA][dL]P[Nleu]L[dNMeA]L[NMeC]-OEt; thioether N-9)
0.125 ×10⁻⁶ cm/s | CCOC(=O)[C@@H]1CSCC(=O)N[C@H](CC)C(=O)N(C)[C@@H](C)C(=O)N[C@H](CC(C)C)C(=O)N2CCC[C@@H]2C(=O)N(CC(C)C)CC(=O)N[C@@H](CC(C)C)C(=O)N(C)[C@H](C)C(=O)N[C@@H](CC(C)C)C(=O)N1C [JF206_ADD_DDLD_Isobutyl] ({CH2CO}-[dAbu][NMeA][dL][dP][Nleu]L[dNMeA]L[NMeC]-OEt; thioether N-9)

Second part, the compound before the results:

SMILES | Papp at 10 µM
CCOC(=O)[C@@H]1CSCC(=O)N[C@H](CC)C(=O)N(C)[C@@H](C)C(=O)N[C@H](CC(C)C)C(=O)N2CCC[C@H]2C(=O)N(CC)CC(=O)N[C@@H](CC(C)C)C(=O)N(C)[C@@H](C)C(=O)N[C@@H](CC(C)C)C(=O)N1C [JF206_ALD_DDLL_Ethyl] ({CH2CO}-[dAbu][NMeA][dL]P[NEtG]L[NMeA]L[NMeC]-OEt; thioether N-9) | 0.00548 ×10⁻⁶ cm/s
CCOC(=O)[C@@H]1CSCC(=O)N[C@@H](CC)C(=O)N(C)[C@@H](C)C(=O)N[C@@H](CC(C)C)C(=O)N2CCC[C@H]2C(=O)N(CC(C)C)CC(=O)N[C@H](CC(C)C)C(=O)N(C)[C@@H](C)C(=O)N[C@@H](CC(C)C)C(=O)N1C [JF206_ALL_LLDL_Isobutyl] ({CH2CO}-[Abu][NMeA]LP[Nleu][dL][NMeA]L[NMeC]-OEt; thioether N-9) | 0.093 ×10⁻⁶ cm/s
CCOC(=O)[C@@H]1CSCC(=O)N[C@H](CC)C(=O)N(C)[C@@H](C)C(=O)N[C@@H](CC(C)C)C(=O)N2CCC[C@@H]2C(=O)N(CC)CC(=O)N[C@@H](CC(C)C)C(=O)N(C)[C@H](C)C(=O)N[C@@H](CC(C)C)C(=O)N1C [JF206_ADD_DLLD_Ethyl] ({CH2CO}-[dAbu][NMeA]L[dP][NEtG]L[dNMeA]L[NMeC]-OEt; thioether N-9) | 0.174 ×10⁻⁶ cm/s
CCOC(=O)[C@@H]1CSCC(=O)N[C@H](CC)C(=O)N(C)[C@@H](C)C(=O)N[C@H](CC(C)C)C(=O)N2CCC[C@H]2C(=O)N(CC)CC(=O)N[C@H](CC(C)C)C(=O)N(C)[C@H](C)C(=O)N[C@@H](CC(C)C)C(=O)N1C [JF206_ALD_DDDD_Ethyl] ({CH2CO}-[dAbu][NMeA][dL]P[NEtG][dL][dNMeA]L[NMeC]-OEt; thioether N-9) | 0.194 ×10⁻⁶ cm/s
CCOC(=O)[C@@H]1CSCC(=O)N[C@H](CC)C(=O)N(C)[C@@H](C)C(=O)N[C@@H](CC(C)C)C(=O)N2CCC[C@@H]2C(=O)N(CC)CC(=O)N[C@@H](CC(C)C)C(=O)N(C)[C@@H](C)C(=O)N[C@@H](CC(C)C)C(=O)N1C [JF206_ADD_DLLL_Ethyl] ({CH2CO}-[dAbu][NMeA]L[dP][NEtG]L[NMeA]L[NMeC]-OEt; thioether N-9) | 0.561 ×10⁻⁶ cm/s
CCOC(=O)[C@@H]1CSCC(=O)N[C@@H](CC)C(=O)N(C)[C@@H](C)C(=O)N[C@@H](CC(C)C)C(=O)N2CCC[C@H]2C(=O)N(CC(C)C)CC(=O)N[C@H](CC(C)C)C(=O)N(C)[C@H](C)C(=O)N[C@@H](CC(C)C)C(=O)N1C [JF206_ALL_LLDD_Isobutyl] ({CH2CO}-[Abu][NMeA]LP[Nleu][dL][dNMeA]L[NMeC]-OEt; thioether N-9) | 0.182 ×10⁻⁶ cm/s
CCOC(=O)[C@@H]1CSCC(=O)N[C@H](CC)C(=O)N(C)[C@@H](C)C(=O)N[C@H](CC(C)C)C(=O)N2CCC[C@H]2C(=O)N(CC)CC(=O)N[C@@H](CC(C)C)C(=O)N(C)[C@H](C)C(=O)N[C@@H](CC(C)C)C(=O)N1C [JF206_ALD_DDLD_Ethyl] ({CH2CO}-[dAbu][NMeA][dL]P[NEtG]L[dNMeA]L[NMeC]-OEt; thioether N-9) | 0.007 ×10⁻⁶ cm/s
CCOC(=O)[C@@H]1CSCC(=O)N[C@@H](CC)C(=O)N(C)[C@@H](C)C(=O)N[C@@H](CC(C)C)C(=O)N2CCC[C@H]2C(=O)N(CC)CC(=O)N[C@H](CC(C)C)C(=O)N(C)[C@H](C)C(=O)N[C@@H](CC(C)C)C(=O)N1C [JF206_ALL_LLDD_Ethyl] ({CH2CO}-[Abu][NMeA]LP[NEtG][dL][dNMeA]L[NMeC]-OEt; thioether N-9) | 0.00468 ×10⁻⁶ cm/s
CCOC(=O)[C@@H]1CSCC(=O)N[C@H](CC)C(=O)N(C)[C@@H](C)C(=O)N[C@@H](CC(C)C)C(=O)N2CCC[C@H]2C(=O)N(CC(C)C)CC(=O)N[C@@H](CC(C)C)C(=O)N(C)[C@H](C)C(=O)N[C@@H](CC(C)C)C(=O)N1C [JF206_ALD_DLLD_Isobutyl] ({CH2CO}-[dAbu][NMeA]LP[Nleu]L[dNMeA]L[NMeC]-OEt; thioether N-9) | 0.117 ×10⁻⁶ cm/s
CCOC(=O)[C@@H]1CSCC(=O)N[C@H](CC)C(=O)N(C)[C@@H](C)C(=O)N[C@H](CC(C)C)C(=O)N2CCC[C@@H]2C(=O)N(CC)CC(=O)N[C@H](CC(C)C)C(=O)N(C)[C@@H](C)C(=O)N[C@@H](CC(C)C)C(=O)N1C [JF206_ADD_DDDL_Ethyl] ({CH2CO}-[dAbu][NMeA][dL][dP][NEtG][dL][NMeA]L[NMeC]-OEt; thioether N-9) | 0.162 ×10⁻⁶ cm/s
CCOC(=O)[C@@H]1CSCC(=O)N[C@@H](CC)C(=O)N(C)[C@@H](C)C(=O)N[C@@H](CC(C)C)C(=O)N2CCC[C@@H]2C(=O)N(CC)CC(=O)N[C@H](CC(C)C)C(=O)N(C)[C@@H](C)C(=O)N[C@@H](CC(C)C)C(=O)N1C [JF206_ADL_LLDL_Ethyl] ({CH2CO}-[Abu][NMeA]L[dP][NEtG][dL][NMeA]L[NMeC]-OEt; thioether N-9) | 0.011 ×10⁻⁶ cm/s
CCOC(=O)[C@@H]1CSCC(=O)N[C@@H](CC)C(=O)N(C)[C@@H](C)C(=O)N[C@@H](CC(C)C)C(=O)N2CCC[C@H]2C(=O)N(CC(C)C)CC(=O)N[C@@H](CC(C)C)C(=O)N(C)[C@H](C)C(=O)N[C@@H](CC(C)C)C(=O)N1C [JF206_ALL_LLLD_Isobutyl] ({CH2CO}-[Abu][NMeA]LP[Nleu]L[dNMeA]L[NMeC]-OEt; thioether N-9) | 0.139 ×10⁻⁶ cm/s
CCOC(=O)[C@@H]1CSCC(=O)N[C@H](CC)C(=O)N(C)[C@@H](C)C(=O)N[C@H](CC(C)C)C(=O)N2CCC[C@@H]2C(=O)N(CC)CC(=O)N[C@H](CC(C)C)C(=O)N(C)[C@H](C)C(=O)N[C@@H](CC(C)C)C(=O)N1C [JF206_ADD_DDDD_Ethyl] ({CH2CO}-[dAbu][NMeA][dL][dP][NEtG][dL][dNMeA]L[NMeC]-OEt; thioether N-9) | 0.16 ×10⁻⁶ cm/s
CCOC(=O)[C@@H]1CSCC(=O)N[C@H](CC)C(=O)N(C)[C@@H](C)C(=O)N[C@@H](CC(C)C)C(=O)N2CCC[C@@H]2C(=O)N(CC)CC(=O)N[C@H](CC(C)C)C(=O)N(C)[C@@H](C)C(=O)N[C@@H](CC(C)C)C(=O)N1C [JF206_ADD_DLDL_Ethyl] ({CH2CO}-[dAbu][NMeA]L[dP][NEtG][dL][NMeA]L[NMeC]-OEt; thioether N-9) | 0.003 ×10⁻⁶ cm/s
CCOC(=O)[C@@H]1CSCC(=O)N[C@H](CC)C(=O)N(C)[C@@H](C)C(=O)N[C@H](CC(C)C)C(=O)N2CCC[C@H]2C(=O)N(CC(C)C)CC(=O)N[C@H](CC(C)C)C(=O)N(C)[C@@H](C)C(=O)N[C@@H](CC(C)C)C(=O)N1C [JF206_ALD_DDDL_Isobutyl] ({CH2CO}-[dAbu][NMeA][dL]P[Nleu][dL][NMeA]L[NMeC]-OEt; thioether N-9) | 0.556 ×10⁻⁶ cm/s
